From paper PMC4562813 (Bioorganic & medicinal chemistry, 2015)

Tests used:
[1] = test system: SR leukemia cell line; test: NCI dose-dependent growth inhibition, SR; assay type: cell-based; details: 48-h exposure, optical density, data provided by NCI
[2] = test system: HL-60 leukemia cell line; test: NCI dose-dependent growth inhibition, HL-60; assay type: cell-based; details: 48-h exposure, optical density, data provided by NCI
[3] = test system: RPMI-8226 leukemia cell line; test: NCI dose-dependent growth inhibition, RPMI-8226; assay type: cell-based; details: 48-h exposure, optical density, data provided by NCI
[4] = test system: MOLT-4 leukemia cell line; test: NCI dose-dependent growth inhibition, MOLT-4; assay type: cell-based; details: 48-h exposure, optical density, data provided by NCI
[5] = test system: K-562 leukemia cell line; test: NCI dose-dependent growth inhibition, K-562; assay type: cell-based; details: 48-h exposure, optical density, data provided by NCI
[6] = target: human 20S proteasome (hs20S), trypsin-like activity mediated by the β2 subunit (Homo sapiens, UniProt P49720+Q99436); assay type: biochemical; details: Boc-LRR-AMC, Table 2

## syringolin B methyl ester [Compound 1]
[1]
  GI50: 5.13 µM
[2]
  GI50: 5.41 µM
[3]
  GI50: 3.97 µM
[4]
  GI50: 4.73 µM
[5]
  GI50: 6.12 µM
[6]
  Trypsin-Like Activity kin/Ki: 326 M⁻¹ s⁻¹
